This note sets out measurements from patent US10428083B2, “Heterocyclylmethyl-thienouracile as antagonists of the adenosine-A2B-receptor” (BAYER PHARMA AKTIENGESELLSCHAFT, priority 2015, dated 2019).

The target of this test is human adenosine A2b receptor (Homo sapiens (Human), UniProt P29275). The test is described as follows: Cellular in vitro reporter gene test for A2b receptor activity (CHO-K1, CRE-luciferase, NECA stimulation). Format: cell-based. The following applies: recombinant CHO-K1 cell line, CRE-luciferase reporter, antagonism of EC50 concentration of NECA; in some cases means of several determinations, rounded to two significant figures; read-out: A2b receptor IC50. In outline:
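CHO-K1 cells with CRE-driven luciferase; antagonists co-incubated with NECA at its EC50, determined in a pre-experiment on each test day. Luciferase read by luminescence 3 h after NECA addition.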

human adenosine A2b receptor, sequence (P29275 whole entry): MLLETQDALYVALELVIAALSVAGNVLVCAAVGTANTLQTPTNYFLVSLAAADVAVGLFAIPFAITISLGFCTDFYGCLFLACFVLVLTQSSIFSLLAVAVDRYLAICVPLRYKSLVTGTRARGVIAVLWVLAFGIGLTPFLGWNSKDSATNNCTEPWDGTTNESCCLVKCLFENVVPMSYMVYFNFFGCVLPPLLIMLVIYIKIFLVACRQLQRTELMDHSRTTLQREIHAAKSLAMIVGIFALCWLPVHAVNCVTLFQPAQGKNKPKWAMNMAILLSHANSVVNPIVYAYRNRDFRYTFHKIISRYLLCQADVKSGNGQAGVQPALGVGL

With `Cc1c(CN2CCNC2=O)sc2c1c(=O)n(CC(F)F)c(=O)n2CCC(F)(F)F` [Example 214, 3-(2,2-Difluoroethyl)-5-methyl-6-[(2-oxoimidazolidin-1-yl)methyl]-1-(3,3,3-trifluoropropyl)thieno[2,3-d]pyrimidine-2,4(1H,3H)-dione], the IC50 came out at 3.1 nM.
With `CCOCCn1c(=O)n(CC(F)F)c(=O)c2c(C)c(CN3CCNC3=O)sc21` [Example 215, 3-(2,2-Difluoroethyl)-1-(2-ethoxyethyl)-5-methyl-6-[(2-oxoimidazolidin-1-yl)methyl]thieno[2,3-d]pyrimidine-2,4(1H,3H)-dione], the IC50 was determined as 45 nM.
To `Cc1c(CN2CCNC2=O)sc2c1c(=O)n(CC(F)F)c(=O)n2CC1COC1` [Example 222, 3-(2,2-Difluoroethyl)-5-methyl-1-(oxetan-3-ylmethyl)-6-[(2-oxoimidazolidin-1-yl)methyl]thieno[2,3-d]pyrimidine-2,4(1H,3H)-dione] belongs 13 nM.
To `Cc1c(CN2CCNC2=O)sc2c1c(=O)n(CC(F)F)c(=O)n2C` [Example 223, 3-(2,2-Difluoroethyl)-1,5-dimethyl-6-[(2-oxoimidazolidin-1-yl)methyl]thieno[2,3-d]pyrimidine-2,4(1H,3H)-dione] belongs 14 nM.
As to `COCCn1c(=O)n(CCCF)c(=O)c2c(C)c(CN3CCNC3=O)sc21` [Example 224, 3-(3-Fluoropropyl)-1-(2-methoxyethyl)-5-methyl-6-[(2-oxoimidazolidin-1-yl)methyl]thieno[2,3-d]pyrimidine-2,4(1H,3H)-dione], the IC50 stood at 31 nM.
As for `Cc1c(CN2CCNC2=O)sc2c1c(=O)n(CC(C)(C)F)c(=O)n2CCC(F)(F)F` [Example 225, 3-(2-Fluoro-2-methylpropyl)-5-methyl-6-[(2-oxoimidazolidin-1-yl)methyl]-1-(3,3,3-trifluoropropyl)thieno[2,3-d]pyrimidine-2,4(1H,3H)-dione], the IC50 worked out at 12 nM.
To `COCCn1c(=O)n(CC(C)(C)F)c(=O)c2c(C)c(CN3CCNC3=O)sc21` [Example 226, 3-(2-Fluoro-2-methylpropyl)-1-(2-methoxyethyl)-5-methyl-6-[(2-oxoimidazolidin-1-yl)methyl]thieno[2,3-d]pyrimidine-2,4(1H,3H)-dione] belongs 36 nM.
Next, `Cc1c(CN2CCNC2=O)sc2c1c(=O)n(CC(C)(C)O)c(=O)n2CCC(F)(F)F` [Example 227, 3-(2-Hydroxy-2-methylpropyl)-5-methyl-6-[(2-oxoimidazolidin-1-yl)methyl]-1-(3,3,3-trifluoropropyl)thieno[2,3-d]pyrimidine-2,4(1H,3H)-dione]: 22 nM.
For `COCCn1c(=O)n(CC(C)(C)O)c(=O)c2c(C)c(CN3CCNC3=O)sc21` [Example 228, 3-(2-Hydroxy-2-methylpropyl)-1-(2-methoxyethyl)-5-methyl-6-[(2-oxoimidazolidin-1-yl)methyl]thieno[2,3-d]pyrimidine-2,4(1H,3H)-dione], the IC50 came out at 130 nM.
Consider `COCCn1c(=O)c2c(C)c(CN3CCNC3=O)sc2n(CCC(F)(F)F)c1=O` [Example 229, 3-(2-Methoxyethyl)-5-methyl-6-[(2-oxoimidazolidin-1-yl)methyl]-1-(3,3,3-trifluoropropyl)thieno[2,3-d]pyrimidine-2,4(1H,3H)-dione], for which the IC50 is 4 nM.
Next, `COCCn1c(=O)c2c(C)c(CN3CCNC3=O)sc2n(CCCF)c1=O` [Example 230, 1-(3-Fluoropropyl)-3-(2-methoxyethyl)-5-methyl-6-[(2-oxoimidazolidin-1-yl)methyl]thieno[2,3-d]pyrimidine-2,4(1H,3H)-dione]: 12 nM; `COCCn1c(=O)c2c(C)c(CN3CCNC3=O)sc2n(CCOC)c1=O` [Example 231, 1,3-Bis(2-methoxyethyl)-5-methyl-6-[(2-oxoimidazolidin-1-yl)methyl]thieno[2,3-d]pyrimidine-2,4(1H,3H)-dione]: 21 nM.
To `CCOCCn1c(=O)n(CCOC)c(=O)c2c(C)c(CN3CCNC3=O)sc21` [Example 232, 1-(2-Ethoxyethyl)-3-(2-methoxyethyl)-5-methyl-6-[(2-oxoimidazolidin-1-yl)methyl]thieno[2,3-d]pyrimidine-2,4(1H,3H)-dione] belongs 93 nM; to `COC(C)(C)Cn1c(=O)c2c(C)c(CN3CCNC3=O)sc2n(CCC(F)(F)F)c1=O` [Example 236, 3-(2-Methoxy-2-methylpropyl)-5-methyl-6-[(2-oxoimidazolidin-1-yl)methyl]-1-(3,3,3-trifluoropropyl)thieno[2,3-d]pyrimidine-2,4(1H,3H)-dione], 6 nM; to `COC(C)(C)Cn1c(=O)c2c(C)c(CN3CCNC3=O)sc2n(CCCF)c1=O` [Example 237, 1-(3-Fluoropropyl)-3-(2-methoxy-2-methylpropyl)-5-methyl-6-[(2-oxoimidazolidin-1-yl)methyl]thieno[2,3-d]pyrimidine-2,4(1H,3H)-dione], 17 nM.
To `COCCn1c(=O)n(CC(C)(C)OC)c(=O)c2c(C)c(CN3CCNC3=O)sc21` [Example 238, 1-(2-Methoxyethyl)-3-(2-methoxy-2-methylpropyl)-5-methyl-6-[(2-oxoimidazolidin-1-yl)methyl]thieno[2,3-d]pyrimidine-2,4(1H,3H)-dione] belongs 99 nM; to `CCN1CCN(Cc2sc3c(c2C)c(=O)n(CCc2ccccc2)c(=O)n3CCOC)C1=O` [Example 239, 6-[(3-Ethyl-2-oxoimidazolidin-1-yl)methyl]-1-(2-methoxyethyl)-5-methyl-3-(2-phenylethyl)thieno[2,3-d]pyrimidine-2,4(1H,3H)-dione], 11 nM.
Take `CCCN1CCN(Cc2sc3c(c2C)c(=O)n(CCc2ccccc2)c(=O)n3CCOC)C1=O` [Example 240, 1-(2-Methoxyethyl)-5-methyl-6-[(2-oxo-3-propylimidazolidin-1-yl)methyl]-3-(2-phenylethyl)thieno[2,3-d]pyrimidine-2,4(1H,3H)-dione]: the IC50 came out at 19 nM.
Next, `CCn1c(=O)c2c(C)c(Cn3cc[nH]c3=O)sc2n(CCC(F)(F)F)c1=O` [Example 241, 3-Ethyl-5-methyl-6-[(2-oxo-2,3-dihydro-1H-imidazol-1-yl)methyl]-1-(3,3,3-trifluoropropyl)thieno[2,3-d]pyrimidine-2,4(1H,3H)-dione]: 1.2 nM.
To `Cc1c(Cn2cc[nH]c2=O)sc2c1c(=O)n(C(C)C)c(=O)n2CCC(F)(F)F` [Example 245, 3-Isopropyl-5-methyl-6-[(2-oxo-2,3-dihydro-1H-imidazol-1-yl)methyl]-1-(3,3,3-trifluoropropyl)thieno[2,3-d]pyrimidine-2,4(1H,3H)-dione] belongs 2.1 nM.
Regarding `COCCn1c(=O)n(C(C)C)c(=O)c2c(C)c(Cn3cc[nH]c3=O)sc21` [Example 246, 3-Isopropyl-1-(2-methoxyethyl)-5-methyl-6-[(2-oxo-2,3-dihydro-1H-imidazol-1-yl)methyl]thieno[2,3-d]pyrimidine-2,4(1H,3H)-dione], the IC50 turned out to be 4.7 nM.
To `CCn1c(=O)c2c(C)c(Cn3cc(C)[nH]c3=O)sc2n(CCC(F)(F)F)c1=O` [Example 250, 3-Ethyl-5-methyl-6-[(4-methyl-2-oxo-2,3-dihydro-1H-imidazol-1-yl)methyl]-1-(3,3,3-trifluoropropyl)thieno[2,3-d]pyrimidine-2,4(1H,3H)-dione] belongs 18 nM; to `CCn1c(=O)c2c(C)c(Cn3c(C)c[nH]c3=O)sc2n(CCC(F)(F)F)c1=O` [Example 251, 3-Ethyl-5-methyl-6-[(5-methyl-2-oxo-2,3-dihydro-1H-imidazol-1-yl)methyl]-1-(3,3,3-trifluoropropyl)thieno[2,3-d]pyrimidine-2,4(1H,3H)-dione], 1.3 nM.
For `CCn1c(=O)c2c(C)c(Cn3c(C)c[nH]c3=O)sc2n(CCOC)c1=O` [Example 252], the 50% inhibitory concentration (IC50) was found to be 4.1 nM.
Next, `Cc1c(Cn2nc[nH]c2=O)sc2c1c(=O)n(C(C)C)c(=O)n2CCC(F)(F)F` [Example 253, 3-Isopropyl-5-methyl-6-[(5-oxo-4,5-dihydro-1H-1,2,4-triazol-1-yl)methyl]-1-(3,3,3-trifluoropropyl)thieno[2,3-d]pyrimidine-2,4(1H,3H)-dione]: 9.9 nM.
`COCCn1c(=O)n(C(C)C)c(=O)c2c(C)c(Cn3nc[nH]c3=O)sc21` [Example 254, 3-Isopropyl-1-(2-methoxyethyl)-5-methyl-6-[(5-oxo-4,5-dihydro-1H-1,2,4-triazol-1-yl)methyl]thieno[2,3-d]pyrimidine-2,4(1H,3H)-dione]: the IC50 worked out at 34 nM.
To `CCn1c(=O)c2c(C)c(CN3CCNC3=NC#N)sc2n(CCC(F)(F)F)c1=O` [Example 255, [1-{[3-Ethyl-5-methyl-2,4-dioxo-1-(3,3,3-trifluoropropyl)-1,2,3,4-tetrahydrothieno[2,3-d]pyrimidin-6-yl]methyl}imidazolidin-2-ylidene]cyanamide] belongs 13 nM; to `Cc1c(CN2CCNC2=NC#N)sc2c1c(=O)n(C(C)C)c(=O)n2CCC(F)(F)F` [Example 262, [1-{[3-Isopropyl-5-methyl-2,4-dioxo-1-(3,3,3-trifluoropropyl)-1,2,3,4-tetrahydrothieno[2,3-d]pyrimidin-6-yl]methyl}imidazolidin-2-ylidene]cyanamide], 2.3 nM; to `COCCn1c(=O)n(C(C)C)c(=O)c2c(C)c(CN3CCNC3=NC#N)sc21` [Example 263, [1-{[3-Isoprpy-1-(2-methoxyethyl)-5-methyl-2,4-dioxo-1,2,3,4-tetrahydrothieno[2,3-d]pyrimidin-6-yl]methyl}imidazolidin-2-ylidene]cyanamide], 5.3 nM.
On to `COCCn1c(=O)n(CC(F)(F)F)c(=O)c2c(C)c(CN3CCNC3=NC#N)sc21` [Example 268, [1-{[1-(2-Methoxyethyl)-5-methyl-2,4-dioxo-3-(2,2,2-trifluoroethyl)-1,2,3,4-tetrahydrothieno[2,3-d]pyrimidin-6-yl]methyl}imidazolidin-2-ylidene]cyanamide], for which the IC50 amounted to 12 nM.
